Data published in patent US10278957B2, “Opioid agonist peptides and uses thereof” (Protagonist Therapeutics, Inc., priority 2017, dated 2019).
Square brackets hold non-standard residues; d marks the D form. Peptide text beside a SMILES is read from it. Phe(3,4-(OMe)2) = COc1ccc(C[C@H](N)C(=O)O)cc1OC; Phe(3,4-Cl2) = N[C@@H](Cc1ccc(Cl)c(Cl)c1)C(=O)O; Phe(4-tBu) = CC(C)(C)c1ccc(C[C@H](N)C(=O)O)cc1; Bip = N[C@@H](Cc1ccc(-c2ccccc2)cc1)C(=O)O; Dip = N[C@H](C(=O)O)C(c1ccccc1)c1ccccc1; Phe(4-F) = N[C@@H](Cc1ccc(F)cc1)C(=O)O; Dmt = Cc1cc(O)cc(C)c1C[C@H](N)C(=O)O; dNMeF = CN[C@H](Cc1ccccc1)C(=O)O; hPhe = N[C@@H](CCc1ccccc1)C(=O)O; αMeF = C[C@](N)(Cc1ccccc1)C(=O)O; Tic = O=C(O)[C@@H]1Cc2ccccc2CN1; β3hF = N[C@H](CC(=O)O)Cc1ccccc1; N(octyl)Gly = CCCCCCCCNCC(=O)O; Nle = CCCC[C@H](N)C(=O)O; Sar = CNCC(=O)O

target: T1, δ-opioid receptor (DOR) (Homo sapiens, UniProt P41143); assay: DOR agonist cAMP assay (HitHunter cAMP, forskolin-stimulated); assay type: cell-based
T1 construct: host or cells: cAMP Hunter CHO-K1 OPRD1 Gαi cell line
Description: The HitHunter® cAMP chemiluminescent assay kit (DiscoveRx, Cat# 90-0075 SM25) was used to detect cAMP production in cAMP Hunter™ Gαi cell lines over expressing either Human-ORPM1 (Discoverx, Catalog# 95-0107C2) or Human-ORPD1 (DiscoveRx, Catalog# 95-0108C2). Opioid agonist binding to the Gαi receptors inhibits the intracellular cAMP accumulation induced by forskolin, which activates adenylate cyclase and increases intracellular levels of cAMP.
Cells were cultured in media consisting of Ham's F-12 Nutrient Mix (Life Technologies, Catalog#31765035), 10% FBS (Life Technologies, Catalog# 16140-071), 4 mM GlutaMAX (Life Technologies, Catalog#35050-061), […] (Life Technologies), 100 ug/ml of Penn-Strep (Life Technologies) and 0.5 mg/ml Geneticin (Life Technologies, Catalog# 10131-027). The cultures were maintained at 37° C. under 5% CO2.
In preparation for cAMP assay, the cells were seeded at a density of 300,000 cells/ml in 100 ul of media/well in 96-well microplate. Wells that were designated for cAMP standards were left empty.
Opioid agonist serial dilutions were prepared in separate dilution plate (11-point series of 3× (3-fold) dilution) in Cell Assay buffer, including 3× forskolin for Gαi target. For Hunter CHO-K1 OPRM1 or CHO-K1 OPRD1 Gαi Cell Lines, the final forskolin concentration was 20 uM.
15 ul of each 3× opioid agonist serial dilution was added in the presence of forskolin in duplicate to the designated wells. The final concentration of each dilution was at 3× of the final screening concentration. The assay plate was incubated for 30 min, at 37° C. under 5% CO2.
Cellular cAMP concentrations were measured using the HitHunter cAMP Assay kit following the manufacturer's protocol. HitHunter cAMP assay is a gain-of-signal competitive immunoassay based on Enzyme Fragment Complementation (EFC) technology. The kit uses β-galactosidase (β-gal) enzyme split into Enzyme Donor (ED) and Enzyme Acceptor (EA). The cellular cAMP and ED-labelled cAMP compete for anti-cAMP antibody. […] When cellular cAMP level is high, it competes for the anti-cAMP antibody, thereby releasing ED-cAMP to complement with EA to produce a luminescent signal. The amount of signal is directly proportional to the amount of cAMP in cells and can be quantified using cAMP standards. The assay plates were read using a PerkinElmer Envision instrument to detect the chemiluminescence signal in each well (luminescence reader at 0.1 to 1 second/well). Data analysis was performed using Graphpad Prism 7.EC50 was calculated by nonlinear regression, using the four-parameter hill equation.

T1 sequence (P41143 whole entry): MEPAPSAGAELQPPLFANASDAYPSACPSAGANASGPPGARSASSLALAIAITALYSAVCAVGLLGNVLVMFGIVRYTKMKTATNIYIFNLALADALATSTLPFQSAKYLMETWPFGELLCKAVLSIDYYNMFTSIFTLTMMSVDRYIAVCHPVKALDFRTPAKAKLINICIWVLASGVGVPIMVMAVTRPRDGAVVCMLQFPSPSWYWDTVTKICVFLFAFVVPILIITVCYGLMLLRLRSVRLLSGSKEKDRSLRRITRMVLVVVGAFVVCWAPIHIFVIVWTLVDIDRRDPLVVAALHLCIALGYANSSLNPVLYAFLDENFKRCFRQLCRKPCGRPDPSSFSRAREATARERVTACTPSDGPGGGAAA

Compound | EC50 [µM]
Cc1cc(O)cc(C)c1C[C@H](N)C(=O)N[C@H](CCCNC(=N)N)C(=O)N[C@@H](Cc1ccccc1)C(=O)N(C)[C@H](Cc1ccccc1)C(N)=O [compound 14] (H-[Dmt][dR]F[dNMeF]-NH2) | 0.01 to 0.05
Cc1cc(O)cc(C)c1C[C@H](N)C(=O)N[C@H](CCCNC(=N)N)C(=O)N[C@@H](Cc1ccccc1)C(=O)N[C@@](C)(Cc1ccccc1)C(N)=O [compound 15] (H-[Dmt][dR]F[αMeF]-NH2) | 0.001 to 0.01
Cc1cc(O)cc(C)c1C[C@H](N)C(=O)N[C@H](CCCNC(=N)N)C(=O)N[C@@H](Cc1ccccc1)C(=O)N[C@@H](Cc1ccc(F)cc1)C(N)=O [compound 16] (H-[Dmt][dR]F[Phe(4-F)]-NH2) | 0.01 to 0.05
COc1ccc(C[C@H](NC(=O)[C@H](Cc2ccccc2)NC(=O)[C@@H](CCCNC(=N)N)NC(=O)[C@@H](N)Cc2c(C)cc(O)cc2C)C(N)=O)cc1OC [compound 17] (H-[Dmt][dR]F[Phe(3,4-(OMe)2)]-NH2) | 0.001 to 0.01
Cc1cc(O)cc(C)c1C[C@H](N)C(=O)N[C@H](CCCNC(=N)N)C(=O)N[C@@H](Cc1ccccc1)C(=O)N[C@@H](CCc1ccccc1)C(N)=O [compound 18] (H-[Dmt][dR]F[hPhe]-NH2) | 0.001 to 0.01
Cc1cc(O)cc(C)c1C[C@H](N)C(=O)N[C@H](CCCNC(=N)N)C(=O)N1Cc2ccccc2C[C@H]1C(=O)N(C)CC(N)=O [compound 21] (H-[Dmt][dR][Tic][Sar]-NH2) | > 0.2
Cc1cc(O)cc(C)c1C[C@H](N)C(=O)N[C@H](CCCNC(=N)N)C(=O)N[C@@H](Cc1ccc(Cl)c(Cl)c1)C(=O)N(C)CC(N)=O [compound 22] (H-[Dmt][dR][Phe(3,4-Cl2)][Sar]-NH2) | 0.01 to 0.05
Cc1cc(O)cc(C)c1C[C@H](N)C(=O)N[C@H](CCCNC(=N)N)C(=O)N[C@@H](Cc1ccc(-c2ccccc2)cc1)C(=O)N(C)CC(N)=O [compound 23] (H-[Dmt][dR][Bip][Sar]-NH2) | < 0.001
Cc1cc(O)cc(C)c1C[C@H](N)C(=O)N[C@H](CCCNC(=N)N)C(=O)N[C@@H](Cc1ccc(C(C)(C)C)cc1)C(=O)N(C)CC(N)=O [compound 24] (H-[Dmt][dR][Phe(4-tBu)][Sar]-NH2) | > 0.2
COc1ccc(C[C@H](NC(=O)[C@@H](CCCNC(=N)N)NC(=O)[C@@H](N)Cc2c(C)cc(O)cc2C)C(=O)N(C)CC(N)=O)cc1OC [compound 25] (H-[Dmt][dR][Phe(3,4-(OMe)2)][Sar]-NH2) | > 0.2
Cc1cc(O)cc(C)c1C[C@H](N)C(=O)N[C@H](CCCNC(=N)N)C(=O)N[C@H](C(=O)N(C)CC(N)=O)C(c1ccccc1)c1ccccc1 [compound 26] (H-[Dmt][dR][Dip][Sar]-NH2) | > 0.2
CCCCCCCCN(CC(N)=O)C(=O)[C@H](Cc1ccccc1)NC(=O)[C@@H](CCCNC(=N)N)NC(=O)[C@@H](N)Cc1c(C)cc(O)cc1C [compound 27] (H-[Dmt][dR]F[N(octyl)Gly]-NH2) | 0.05 to 0.2
CCCC[C@H](NC(=O)[C@H](Cc1ccccc1)NC(=O)[C@@H](CCCN=C(N)N)NC(=O)[C@@H](N)Cc1c(C)cc(O)cc1C)C(N)=O [compound 28] (H-[Dmt][dR]F[Nle]-NH2) | 0.01 to 0.05
Cc1cc(O)cc(C)c1C[C@H](N)C(=O)N[C@H](CCCNC(=N)N)C(=O)N[C@@H](Cc1ccccc1)C(=O)N[C@@H](CC(C)C)C(N)=O [compound 29] (H-[Dmt][dR]FL-NH2) | 0.01 to 0.05
Cc1cc(O)cc(C)c1C[C@H](N)C(=O)N[C@H](CCCNC(=N)N)C(=O)N[C@@H](Cc1ccccc1)C(=O)N[C@H](C(N)=O)C(C)C [compound 30] (H-[Dmt][dR]FV-NH2) | 0.001 to 0.01
CCCC[C@H](NC(=O)[C@H](Cc1c[nH]c2ccccc12)NC(=O)[C@@H](CCCNC(=N)N)NC(=O)[C@@H](N)Cc1c(C)cc(O)cc1C)C(N)=O [compound 31] (H-[Dmt][dR]W[Nle]-NH2) | 0.01 to 0.05
Cc1cc(O)cc(C)c1C[C@H](N)C(=O)N[C@H](CCCNC(=N)N)C(=O)NCC(=O)N[C@H](C(N)=O)C(c1ccccc1)c1ccccc1 [compound 33] (H-[Dmt][dR]G[Dip]-NH2) | > 0.2
Cc1cc(O)cc(C)c1C[C@H](N)C(=O)N[C@H](CCCNC(=N)N)C(=O)NCC(=O)N[C@@H](Cc1c[nH]c2ccccc12)C(N)=O [compound 34] (H-[Dmt][dR]GW-NH2) | 0.01 to 0.05
Cc1cc(O)cc(C)c1C[C@H](N)C(=O)N[C@H](CCCNC(=N)N)C(=O)N(C)CC(=O)N[C@@H](Cc1c[nH]c2ccccc12)C(N)=O [compound 35] (H-[Dmt][dR][Sar]W-NH2) | > 0.2
Cc1cc(O)cc(C)c1C[C@H](N)C(=O)N[C@H](CCCNC(=N)N)C(=O)N[C@@H](Cc1ccccc1)C(=O)N[C@H](C(N)=O)C(c1ccccc1)c1ccccc1 [compound 36] (H-[Dmt][dR]F[Dip]-NH2) | 0.01 to 0.05

Compound | EC50 [µM]
Cc1cc(O)cc(C)c1C[C@H](N)C(=O)N[C@H](C)C(=O)NCC(=O)N[C@@H](Cc1ccc(F)cc1)C(=O)NCC(N)=O [compound 38] | < 0.001
Cc1cc(O)cc(C)c1C[C@H](N)C(=O)N[C@H](C)C(=O)NCC(=O)N[C@@H](Cc1ccc(C#N)cc1)C(=O)NCC(N)=O [compound 39] | < 0.001
Cc1cc(O)cc(C)c1C[C@H](N)C(=O)N[C@H](C)C(=O)NCC(=O)N1Cc2ccccc2C[C@H]1C(=O)NCC(N)=O [compound 40] | 0.01 to 0.05
Cc1cc(O)cc(C)c1C[C@H](N)C(=O)N[C@H](C)C(=O)NCC(=O)N[C@@H](Cc1ccc(Cl)c(Cl)c1)C(=O)NCC(N)=O [compound 41] | < 0.001
Cc1cc(O)cc(C)c1C[C@H](N)C(=O)N[C@H](C)C(=O)NCC(=O)N[C@@H](CCc1ccccc1)C(=O)N(C)CC(N)=O [compound 47] | 0.001 to 0.01
C[C@@H](NC(=O)[C@@H](N)Cc1ccc(O)cc1)C(=O)NCC(=O)N[C@H](CC(=O)N(C)CC(N)=O)Cc1ccccc1 [compound 62] | 0.001 to 0.01
Cc1cc(O)cc(C)c1C[C@H](N)C(=O)N[C@H](C)C(=O)N(C)CC(=O)N[C@H](CC(=O)N(C)CC(N)=O)Cc1ccccc1 [compound 64] | 0.05 to 0.2
Cc1cc(O)cc(C)c1C[C@H](N)C(=O)N[C@H](C)C(=O)N[C@H](C(=O)N[C@H](CC(=O)N(C)CC(N)=O)Cc1ccccc1)C(C)C [compound 69] (H-[Dmt][dA]V[β3hF][Sar]-NH2) | 0.05 to 0.2
Cc1cc(C(N)=O)cc(C)c1C[C@H](N)C(=O)N[C@H](CC(=O)O)C(=O)NCC(=O)N[C@H](CC(=O)N(C)CC(N)=O)Cc1ccccc1 [compound 77] | < 0.001
Cc1cc(C(N)=O)cc(C)c1C[C@H](N)C(=O)N(C)[C@@H](CCCNC(=N)N)C(=O)NCC(=O)N[C@H](CC(=O)N(C)CC(N)=O)Cc1ccccc1 [compound 78] | 0.05 to 0.2
CC(=O)N[C@@H](Cc1c(C)cc(O)cc1C)C(=O)N[C@H](C)C(=O)NCC(=O)N[C@H](CC(=O)N(C)CC(N)=O)Cc1ccccc1 [compound 86] | 0.01 to 0.05
Cc1cc(O)cc(C)c1C[C@H](N)C(=O)N[C@@H](C)C(=O)NCC(=O)N[C@H](CC(=O)N(C)CC(=O)O)Cc1ccccc1 [compound 88] | 0.01 to 0.05
Cc1cc(O)cc(C)c1C[C@H](N)C(=O)N(C)[C@@H](CCCNC(=N)N)C(=O)NCC(=O)N[C@H](CC(=O)N(C)CC(N)=O)Cc1ccccc1 [compound 91] | 0.05 to 0.2
Cc1cc(O)cc(C)c1C[C@H](N)C(=O)N[C@H](C)C(=O)NCC(=O)N1Cc2ccccc2C[C@H]1C(=O)N(C)CC(N)=O [compound 107] | 0.01 to 0.05
CCCCCCCCN(CC(N)=O)C(=O)C[C@H](Cc1ccccc1)NC(=O)CNC(=O)[C@@H](C)NC(=O)[C@@H](N)Cc1c(C)cc(O)cc1C [compound 115] | 0.01 to 0.05
Cc1cc(O)cc(C)c1C[C@H](N)C(=O)N[C@H](C)C(=O)NCC(=O)N[C@H](CC(=O)N(CC(N)=O)CC1CCCCC1)Cc1ccccc1 [compound 119] | 0.001 to 0.01
Cc1cc(O)cc(C)c1C[C@H](N)C(=O)N[C@H](C)C(=O)NCC(=O)N[C@H](CC(=O)N(CCC(=O)O)CC(N)=O)Cc1ccccc1 [compound 120] | < 0.001
Cc1cc(O)cc(C)c1C[C@H](N)C(=O)N[C@H](C)C(=O)NCC(=O)N[C@H](CC(=O)N(CCc1ccccc1)CC(N)=O)Cc1ccccc1 [compound 121] | < 0.001
Cc1cc(O)cc(C)c1C[C@H](N)C(=O)N[C@H](C)C(=O)NCC(=O)N[C@H](CC(=O)N(CC(N)=O)C1CCCCC1)Cc1ccccc1 [compound 123] | < 0.001
CCCCCN(CC(N)=O)C(=O)C[C@H](Cc1ccccc1)NC(=O)CNC(=O)[C@@H](C)NC(=O)[C@@H](N)Cc1c(C)cc(O)cc1C [compound 124] | < 0.001
